Laboratory results from patent US20260022142A1, “MACROCYCLIC IMMUNOMODULATORS” (Bristol-Myers Squibb Company, priority 2022, published 2026).
Bridge positions count the residues as written; N and C are the ends. Square brackets hold non-standard residues; d marks the D form. Peptide text beside a SMILES is read from it. * marks the point of attachment. ξ: configuration not given here. Bip = N[C@@H](Cc1ccc(-c2ccccc2)cc1)C(=O)O; Phe(3-Me) = Cc1cccc(C[C@H](N)C(=O)O)c1; hArg = N=C(N)NCCCC[C@H](N)C(=O)O; Cha = N[C@@H](CC1CCCCC1)C(=O)O; Cit = NC(=O)NCCC[C@H](N)C(=O)O; aThr = C[C@H](O)[C@H](N)C(=O)O; Thr(3ξ) = CC(O)[C@H](N)C(=O)O; Carboxymethyl = O=C(O)C*; Orn = NCCC[C@H](N)C(=O)O; Aun = NCCCCCCCCCCC(=O)O; Dab = NCC[C@H](N)C(=O)O; AEEA = NCCOCCOCC(=O)O

Target: T1, PD-1/PD-L1 interaction (PE-labeled human PD-L1-Ig binding to Jurkat cell line over-expressing human PD-1) (Homo sapiens, UniProt Q15116)
T1 construct: expressed in transfected cells; host or cells: Jurkat
Assay: Jurkat-PD-1 Cell Binding High-Content Screening Assay (CBA)
Type: cell-based
Settings: Jurkat cell line over-expressing human PD-1; PE-labeled PD-L1-Ig 20 nM final; read-out: Jurkat hPD1-PDL1 IC50
In short: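 First, compound is added to PD-1-expressing Jurkat cells in serum-containing DMEM and left 2 h at 37° C. Next, PE-conjugated PD-L1-Ig is introduced at 20 nM final concentration for 1 hour. Finally, cells are fixed in 4% paraformaldehyde with Hoechst 33342, washed and imaged.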

T1 sequence (Q15116 25-288): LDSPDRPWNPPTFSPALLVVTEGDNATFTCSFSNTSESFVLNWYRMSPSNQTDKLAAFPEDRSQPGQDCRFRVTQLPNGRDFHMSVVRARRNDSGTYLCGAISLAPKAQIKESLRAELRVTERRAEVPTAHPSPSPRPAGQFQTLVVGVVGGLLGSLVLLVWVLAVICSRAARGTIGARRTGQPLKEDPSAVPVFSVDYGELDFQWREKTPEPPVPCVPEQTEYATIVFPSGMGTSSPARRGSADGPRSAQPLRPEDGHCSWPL

SMILES	IC50
Cc1cccc(C[C@@H]2NC(=O)[C@H](CC(=O)O)NC(=O)[C@H](Cc3ccc(OCC(=O)O)cc3)NC(=O)[C@H](CCCCNC(=N)N)NC(=O)CSC[C@@H](C(=O)NCCOCCOCC(=O)N[C@@H](CCN)C(=O)NCCCCCCCCCCC(=O)O)NC(=O)[C@H](CCCN)NC(=O)[C@H](C(C)C)NC(=O)[C@H](CC3CCCCC3)NC(=O)[C@H](CCN)NC(=O)[C@@H](CC(C)C)NC(=O)[C@H](CCN)NC(=O)[C@H](C(C)C)NC(=O)[C@H](Cc3ccc(-c4ccccc4)cc3)NC(=O)[C@H](C(C)C)NC2=O)c1 [Compound 3251] ({CH2CO}-[hArg]Y(Carboxymethyl)D[Phe(3-Me)]V[Bip]V[Dab][dL][Dab][Cha]V[Orn]C[AEEA][Dab][Aun]-OH; thioether N-14)	5.7 nM
Cc1cccc(C[C@@H]2NC(=O)[C@H](CC(=O)O)NC(=O)[C@H](Cc3ccc(OCC(=O)O)cc3)NC(=O)[C@H](CCCCNC(=N)N)NC(=O)CSC[C@@H](C(=O)N[C@@H](CCN)C(=O)NCCOCCOCC(=O)NCCCCCCCCCCC(=O)O)NC(=O)[C@H](CCCN)NC(=O)[C@H](C(C)C)NC(=O)[C@H](CC3CCCCC3)NC(=O)[C@H](CCN)NC(=O)[C@@H](CC(C)C)NC(=O)[C@H](CCN)NC(=O)[C@H](C(C)C)NC(=O)[C@H](Cc3ccc(-c4ccccc4)cc3)NC(=O)[C@H](C(C)C)NC2=O)c1 [Compound 3252] ({CH2CO}-[hArg]Y(Carboxymethyl)D[Phe(3-Me)]V[Bip]V[Dab][dL][Dab][Cha]V[Orn]C[Dab][AEEA][Aun]-OH; thioether N-14)	7.4 nM
CC(C)C[C@H]1NC(=O)[C@H](CCN)NC(=O)[C@H](C(C)C)NC(=O)[C@H](Cc2ccc(-c3ccccc3)cc2)NC(=O)[C@H](C(C)C)NC(=O)[C@H](Cc2c[nH]c3ccccc23)NC(=O)[C@H](CC(=O)O)NC(=O)[C@H](Cc2ccc(OCC(=O)O)cc2)NC(=O)[C@H](C(C)O)NC(=O)CSC[C@@H](C(=O)N[C@@H](CCN)C(=O)NCCCCCCCCCCC(=O)O)NC(=O)[C@H](CCCNC(N)=O)NC(=O)[C@H](C(C)C)NC(=O)[C@H](CC2CCCCC2)NC(=O)[C@H](CCN)NC1=O (stereo partly drawn) [Compound 3253] ({CH2CO}-[Thr(3ξ)]Y(Carboxymethyl)DWV[Bip]V[Dab][dL][Dab][Cha]V[Cit]C[Dab][Aun]-OH; thioether N-14)	8.8 nM
Cc1cccc(C[C@@H]2NC(=O)[C@H](CC(=O)O)NC(=O)[C@H](Cc3ccc(OCC(=O)O)cc3)NC(=O)[C@H](C(C)O)NC(=O)CSC[C@@H](C(=O)N[C@H](CC(N)=O)C(=O)NCCOCCOCC(=O)NCCCCCCCCCCC(=O)O)NC(=O)[C@H](CO)NC(=O)[C@H](C(C)C)NC(=O)[C@H](CC3CCCCC3)NC(=O)[C@H](CCN)NC(=O)[C@@H](CC(C)C)NC(=O)[C@H](CCCN)NC(=O)[C@H](C(C)C)NC(=O)[C@H](Cc3ccc(-c4ccccc4)cc3)NC(=O)[C@H](C(C)C)NC2=O)c1 (stereo partly drawn) [Compound 3254] ({CH2CO}-[Thr(3ξ)]Y(Carboxymethyl)D[Phe(3-Me)]V[Bip]V[Orn][dL][Dab][Cha]VSC[dN][AEEA][Aun]-OH; thioether N-14)	10.9 nM
CC(C)C[C@H]1NC(=O)[C@H](CCN)NC(=O)[C@H](C(C)C)NC(=O)[C@H](Cc2ccc(-c3ccccc3)cc2)NC(=O)[C@H](C(C)C)NC(=O)[C@H](Cc2c[nH]c3ccccc23)NC(=O)[C@H](CC(=O)O)NC(=O)[C@H](Cc2ccc(OCC(=O)O)cc2)NC(=O)[C@H](CCCCNC(=N)N)NC(=O)CSC[C@@H](C(=O)N[C@@H](CCN)C(=O)NCCCCCCCCCCC(=O)O)NC(=O)[C@H](CCCCN)NC(=O)[C@H](C(C)C)NC(=O)[C@H](CC2CCCCC2)NC(=O)[C@H](CCN)NC1=O [Compound 3255] ({CH2CO}-[hArg]Y(Carboxymethyl)DWV[Bip]V[Dab][dL][Dab][Cha]VKC[Dab][Aun]-OH; thioether N-14)	13.2 nM
Cc1cccc(C[C@@H]2NC(=O)[C@H](CC(=O)O)NC(=O)[C@H](Cc3ccc(OCC(=O)O)cc3)NC(=O)[C@H]([C@H](C)O)NC(=O)CSC[C@@H](C(=O)N[C@H](CC(N)=O)C(=O)NCCOCCOCC(=O)NCCCCCCCCCCC(=O)O)NC(=O)[C@H](CCCCN)NC(=O)[C@H](C(C)C)NC(=O)[C@H](CC3CCCCC3)NC(=O)[C@H](CCN)NC(=O)[C@@H](CC(C)C)NC(=O)[C@H](CCN)NC(=O)[C@H](C(C)C)NC(=O)[C@H](Cc3ccc(-c4ccccc4)cc3)NC(=O)[C@H](C(C)C)NC2=O)c1 [Compound 3256] ({CH2CO}-[aThr]Y(Carboxymethyl)D[Phe(3-Me)]V[Bip]V[Dab][dL][Dab][Cha]VKC[dN][AEEA][Aun]-OH; thioether N-14)	4 nM
Cc1cccc(C[C@@H]2NC(=O)[C@H](CC(=O)O)NC(=O)[C@H](Cc3ccc(OCC(=O)O)cc3)NC(=O)[C@H](C(C)O)NC(=O)CSC[C@@H](C(=O)NCCOCCOCC(=O)NCCCCCCCCCCC(=O)O)NC(=O)[C@H](CCCCN)NC(=O)[C@H](C(C)C)NC(=O)[C@H](CC3CCCCC3)NC(=O)[C@H](CCN)NC(=O)[C@@H](CC(C)C)NC(=O)[C@H](CCN)NC(=O)[C@H](C(C)C)NC(=O)[C@H](Cc3ccc(-c4ccccc4)cc3)NC(=O)[C@H](C(C)C)NC2=O)c1 (stereo partly drawn) [Compound 3257] ({CH2CO}-[Thr(3ξ)]Y(Carboxymethyl)D[Phe(3-Me)]V[Bip]V[Dab][dL][Dab][Cha]VKC[AEEA][Aun]-OH; thioether N-14)	5.3 nM
CC(C)C[C@@H]1NC(=O)[C@H](Cc2c[nH]c3ccccc23)NC(=O)[C@H](CC(=O)O)NC(=O)[C@H](Cc2ccc(OCC(=O)O)cc2)NC(=O)[C@H](CCCCNC(=N)N)NC(=O)CSC[C@@H](C(=O)NCCOCCOCC(=O)N[C@@H](CCN)C(=O)NCCCCCCCCCCC(=O)O)NC(=O)[C@H](CCCCN)NC(=O)[C@H](C(C)C)NC(=O)[C@H](CC2CCCCC2)NC(=O)[C@H](CCN)NC(=O)[C@@H](C)NC(=O)[C@H](CCN)NC(=O)[C@H](C(C)C)NC(=O)[C@H](Cc2ccc(-c3ccccc3)cc2)NC1=O [Compound 3258] ({CH2CO}-[hArg]Y(Carboxymethyl)DWL[Bip]V[Dab][dA][Dab][Cha]VKC[AEEA][Dab][Aun]-OH; thioether N-14)	37.3 nM
Cc1cccc(C[C@@H]2NC(=O)[C@H](CC(=O)O)NC(=O)[C@H](Cc3ccc(OCC(=O)O)cc3)NC(=O)[C@H](CCCCNC(=N)N)NC(=O)CSC[C@@H](C(=O)N[C@@H](CCN)C(=O)NCCCCCCCCCCC(=O)O)NC(=O)[C@H](CCCN)NC(=O)[C@H](C(C)C)NC(=O)[C@H](CC3CCCCC3)NC(=O)[C@H](CCN)NC(=O)[C@@H](CC(C)C)NC(=O)[C@H](CCCN)NC(=O)[C@H](C(C)C)NC(=O)[C@H](Cc3ccc(-c4ccccc4)cc3)NC(=O)[C@H](C(C)C)NC2=O)c1 [Compound 3259] ({CH2CO}-[hArg]Y(Carboxymethyl)D[Phe(3-Me)]V[Bip]V[Orn][dL][Dab][Cha]V[Orn]C[Dab][Aun]-OH; thioether N-14)	10.9 nM
Cc1cccc(C[C@@H]2NC(=O)[C@H](CC(=O)O)NC(=O)[C@H](Cc3ccc(OCC(=O)O)cc3)NC(=O)[C@H](CCCCNC(=N)N)NC(=O)CSC[C@@H](C(=O)N[C@@H](CCN)C(=O)NCCCCCCCCCCC(=O)O)NC(=O)[C@H](CCCCN)NC(=O)[C@H](C(C)C)NC(=O)[C@H](CC3CCCCC3)NC(=O)[C@H](CCN)NC(=O)[C@@H](CC(C)C)NC(=O)[C@H](CCCN)NC(=O)[C@H](C(C)C)NC(=O)[C@H](Cc3ccc(-c4ccccc4)cc3)NC(=O)[C@H](C(C)C)NC2=O)c1 [Compound 3260] ({CH2CO}-[hArg]Y(Carboxymethyl)D[Phe(3-Me)]V[Bip]V[Orn][dL][Dab][Cha]VKC[Dab][Aun]-OH; thioether N-14)	12.2 nM
CC(C)C[C@H]1NC(=O)[C@H](CCCN)NC(=O)[C@H](C(C)C)NC(=O)[C@H](Cc2ccc(-c3ccccc3)cc2)NC(=O)[C@H](C(C)C)NC(=O)[C@H](Cc2c[nH]c3ccccc23)NC(=O)[C@H](CC(=O)O)NC(=O)[C@H](Cc2ccc(OCC(=O)O)cc2)NC(=O)[C@H](CCCCNC(=N)N)NC(=O)CSC[C@@H](C(=O)NCCOCCOCC(=O)NCCCCCCCCCCC(=O)O)NC(=O)[C@H](CCCN)NC(=O)[C@H](C(C)C)NC(=O)[C@H](CC2CCCCC2)NC(=O)[C@H](CCN)NC1=O [Compound 3262] ({CH2CO}-[hArg]Y(Carboxymethyl)DWV[Bip]V[Orn][dL][Dab][Cha]V[Orn]C[AEEA][Aun]-OH; thioether N-14)	6.7 nM
CC(C)C[C@H]1NC(=O)[C@H](CCCN)NC(=O)[C@H](C(C)C)NC(=O)[C@H](Cc2ccc(-c3ccccc3)cc2)NC(=O)[C@H](C(C)C)NC(=O)[C@H](Cc2c[nH]c3ccccc23)NC(=O)[C@H](CC(=O)O)NC(=O)[C@H](Cc2c[nH]cn2)NC(=O)[C@H](CCCCNC(=N)N)NC(=O)CSC[C@@H](C(=O)N[C@@H](CCN)C(=O)NCCCCCCCCCCC(=O)O)NC(=O)[C@H](CCCN)NC(=O)[C@H](C(C)C)NC(=O)[C@H](CC2CCCCC2)NC(=O)[C@H](CCN)NC1=O [Compound 3263] ({CH2CO}-[hArg]HDWV[Bip]V[Orn][dL][Dab][Cha]V[Orn]C[Dab][Aun]-OH; thioether N-14)	55.3 nM
Cc1cccc(C[C@@H]2NC(=O)[C@H](CC(=O)O)NC(=O)[C@H](Cc3c[nH]cn3)NC(=O)[C@H](CCCCNC(=N)N)NC(=O)CSC[C@@H](C(=O)NCCOCCOCC(=O)NCCCCCCCCCCC(=O)O)NC(=O)[C@H](CCCN)NC(=O)[C@H](C(C)C)NC(=O)[C@H](CC3CCCCC3)NC(=O)[C@H](CCN)NC(=O)[C@@H](CC(C)C)NC(=O)[C@H](CCCN)NC(=O)[C@H](C(C)C)NC(=O)[C@H](Cc3ccc(-c4ccccc4)cc3)NC(=O)[C@H](C(C)C)NC2=O)c1 [Compound 3264] ({CH2CO}-[hArg]HD[Phe(3-Me)]V[Bip]V[Orn][dL][Dab][Cha]V[Orn]C[AEEA][Aun]-OH; thioether N-14)	12.6 nM
CC(C)C[C@H]1NC(=O)[C@H](CCN)NC(=O)[C@H](C(C)C)NC(=O)[C@H](Cc2ccc(-c3ccccc3)cc2)NC(=O)[C@H](C(C)C)NC(=O)[C@H](Cc2c[nH]c3ccccc23)NC(=O)[C@H](CC(=O)O)NC(=O)[C@H](Cc2ccc(OCC(=O)O)cc2)NC(=O)[C@H](CCCCNC(=N)N)NC(=O)CSC[C@@H](C(=O)NCCOCCOCC(=O)NCCCCCCCCCCC(=O)O)NC(=O)[C@H](CCCN)NC(=O)[C@H](C(C)C)NC(=O)[C@H](CC2CCCCC2)NC(=O)[C@H](CCN)NC1=O [Compound 3265] ({CH2CO}-[hArg]Y(Carboxymethyl)DWV[Bip]V[Dab][dL][Dab][Cha]V[Orn]C[AEEA][Aun]-OH; thioether N-14)	7.2 nM
